Test results from PubChem BioAssay AID1963420 (Molecular Pharmacology Branch, DTP, NCI, 2024).
Values joined by “and” are separate entries in the source; they are usually repeats but may differ in a detail not shown here. Equal entries are not always repeated.

Test system: 494315-158-R-J1-PDC complex spheroid growth, percent test/control
Test: Anticancer human tumor 494315-158-R-J1-PDC patient-derived soft tissue sarcoma cell line growth inhibition [Asc]
Conditions: for viability, T/C: stronger effect = lower value
Experimental: Multicellular complex tumor spheroid response to apoptosis pathway targeting inhibitors Alrizomadlin, Pelcitoclax, and Dasminapant in combination with a variety of drugs and investigational agents in selected tumor cell lines
The MDM2 inhibitor alrizomadlin, the Bcl-2/Bcl-xL inhibitor pelcitoclax, and the IAPs inhibitor dasminapant were evaluated both individually and in combination with standard of care and investigational anticancer small molecules within a complex spheroid model of solid tumors. . Complex spheroids include a stromal component modeled by human endothelial cells (HUVEC) and fibroblasts modeled by human mesenchymal stem cells (MSCs). The concentration ranges selected for each drug and investigational agent were based upon clinically achievable concentrations if the clinical Cmax of the agent was known.
Compounds. The drugs and investigational agents: alrizomadlin (APG-115; NSC831270), pelcitoclax (APG-1252; NSC835773), dasminapant (APG-1387;NSC834197), TAK-243 (NSC785004), copanlisib (NSC809693), olaparib (NSC753686), talazoparib (NSC767125), cobimetinib (NSC 768068), eltanexor (KPT-8602, NSC 794443), abemaciclib (NSC 768073), sotorasib (NSC818433), adagrasib (NSC 831453), MRTX-1133 (NSC 836407), Iadademestat (ORY1001, NSC 806812), and RMC-4630 (NSC839698), were obtained from the NCI Developmental Therapeutics Program Chemical Repository. The FDA-approved anticancer drug set is available from the Developmental Therapeutics Program at https://dtp.cancer.gov/organization/dscb/obtaining/available plates.htm. […] The stock solutions were prepared in dimethyl sulfoxide (DMSO, Sigma-Aldrich, St. Louis, MO, cat. D2650) at 800-fold the tested concentration and stored at -70 degrees C prior to their use. All drugs and investigational agents were tested over a range starting from a high concentration at or near the clinical Cmax and decreasing in half-log increments. If the clinical Cmax for an agent had not been determined, the highest concentration tested was 10 microM.
The patient-derived cancer (PDC) cell lines include five colon adenocarcinomas: 186277-243-T-J2-PDC, 616215-338-R-J1-PDC, 439559-082-T-J2-PDC, 463943-066-T-J2-PDC, and 519858-162-T-J1-PDC; three pancreatic carcinomas: 323965-272-R-J2-PDC, 521955-158-R6-J3-PDC, and 521955-158-R2-J5-PDC; two uterine sarcomas: 327498-152-R-J2-PDC and 993429-296-R-J1-PDC; two rhabdomyosarcomas: 755483-174-R-J1-PDC and 772245-204-R-J1-PDC; two soft tissue sarcomas: 126254-015-R-J1-PDC and 494315-158-R-J1-PDC; two malignant fibrous histiocytomas: 317291-083-R-J1-PDC and 596521-263-R-J1-PDC; two breast carcinomas: 171881-019-R-J1-PDC and 885512-296-R-J2-PDC; and one ovarian carcinoma: 6556581-035-R-J-PDC were obtained from the NCI PDMR, (https://pdmr.cancer.gov). The established cell lines HSSY-2 synovial sarcoma (RRID:CVCL 8719), SYO-1 synovial sarcoma (RRID:CVCL_7146), MPNST malignant peripheral neural sheath tumor were obtained from the Sloan Kettering Institute. The following established cell lines were purchased from the American Type Culture Collection (ATCC, Manassas, VA), Sor the received from the NCI repository:, PANC-1 pancreatic carcinoma (CRL-1469, RRID:CVCL_0480), OVCAR-5 ovarian carcinoma (RRID:CVCL_1628), OVCAR-8 ovarian carcinoma (RRID:CVCL_1629), , MCF-7 breast carcinoma (CRL-12584, RRID:CVCL_0031), MDA-MB-231 breast carcinoma (CRL-12532, RRID:CVCL_0062), NCI-H1876 small cell lung carcinoma (CRL-5902, RRID:CVCL_1503), NCI-H510A small cell lung carcinoma (HTB-184, RRID:CVCL_1565), NCI-H1417 (CRL-5869, RRID:CVCL_1469), and NCI-H196 small cell lung carcinoma (CRL-5823, RRID:CVCL_1509). Dr. Peter Houghton (Greehey Children's Cancer Research Institute, University of Texas Health Science Center, San Antonio, TX) provided Rh-18 rhabdomyosarcoma (RRID:CVCL_1659). Pooled donor human umbilical vein endothelial cells (HUVEC, Lonza, cat. CC-2519) and human mesenchymal stem cells (hMSC, Lonza, cat. PT-2501) were purchased from Lonza (Walkersville, MD).
Cell Culture. […]

[1] = compound alone, run of 09/27/2022
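Further: compound exposure lasted seven days after spheroids formed for three days.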

| SMILES | viability, T/C (compound 0.0316 µM) | viability, T/C (compound 0.1 µM) | viability, T/C (compound 0.316 µM) | viability, T/C (compound 1 µM) | viability, T/C (compound 3.16 µM) | viability, T/C (compound 10 µM) | IC50 (curve of compound) | viability, T/C (compound 0.00316 µM) | viability, T/C (compound 0.01 µM) | also measured |
| --- | --- | --- | --- | --- | --- | --- | --- | --- | --- | --- |
| C#Cc1c(F)ccc2cc(O)cc(-c3ncc4c(N5CC6CCC(C5)N6)nc(OCC56CCCN5CC(F)C6)nc4c3F)c12 (stereo not drawn) | 107% and 98.9% and 87.7% | 109% and 102% and 108% | 107% and 98.4% and 99.9% | 107% and 104% and 95.3% | 120% and 97.1% and 100% | 103% and 86.4% and 91.4% | > 10000 nM | – | – | – |
| C=C(F)C(=O)N1CCN(c2nc(OCC3CCCN3C)nc3c2CCN(c2cccc4cccc(Cl)c24)C3)CC1CC#N (stereo not drawn) | 89.2% and 99.6% and 84.3% | 92.5% and 97.5% and 96.5% | 88.7% and 82.5% and 97.6% | 84.9% and 84.5% and 86.7% | 62% and 51.7% and 68.6% | 0.23% and 0.25% and 0.24% | 3950 nM and 3360 nM and 4310 nM | – | – | – |
| C=CC(=O)N1CCN(c2nc(=O)n(-c3c(C)ccnc3C(C)C)c3nc(-c4c(O)cccc4F)c(F)cc23)C(C)C1 (stereo not drawn) | 105% and 116% and 107% | 109% and 108% and 91.3% | 103% and 101% and 104% | 113% and 112% and 105% | 112% and 113% and 101% | 98.8% and 110% and 109% | > 10000 nM | – | – | – |
| CCN1C(C(=O)NC23CCC(C(=O)O)(CC2)CC3)C(c2cccc(Cl)c2F)C2(C(=O)Nc3cc(Cl)ccc32)C12CCCCC2 (stereo not drawn) | – | – | – | – | – | – | > 3000 nM | – | – | viability, T/C (compound 0.00949 µM): 86.2% and 96.4%; IC50 [1]: > 3000 nM |
| CCN1CCN(Cc2ccc(Nc3ncc(F)c(-c4cc(F)c5nc(C)n(C(C)C)c5c4)n3)nc2)CC1 | 97.3% and 110% and 101% | 94.9% and 96.2% and 93.2% | 86.4% and 92.8% and 116% | 87% and 91.4% and 104% | – | – | > 1000 nM | 86.4% and 118% and 98.1% | 95.3% and 99.7% and 103% | – |
| CNC(C)C(=O)NC1CN(S(=O)(=O)c2cccc(S(=O)(=O)N3CCC4CCC(C(=O)NC(c5ccccc5)c5ccccc5)N4C(=O)C(NC(=O)C(C)NC)C3)c2)CCC2CCC(C(=O)NC(c3ccccc3)c3ccccc3)N2C1=O (stereo not drawn) | 58.5% [middle of 15 runs] | 51.9% [middle of 15 runs] | 45% [middle of 15 runs] | 39.2% [middle of 15 runs] | – | – | 46.1 nM and 28.9 nM | 79% and 74.7% | 69.1% [middle of 15 runs] | – |
| COc1c(OCCCN2CCOCC2)ccc2c3n(c(=NC(=O)c4cnc(N)nc4)nc12)CCN3 | 56.8% and 58.9% and 54.3% | 37% and 32% and 34% | 20.7% and 21.1% and 18% | 16.9% and 20.5% and 16.8% | – | – | 48 nM and 46 nM and 44.1 nM | 87.8% and 87% and 82.3% | 79.6% and 80.4% and 82.8% | – |
| Cc1c(S(C)(=O)=O)c(-c2cc(F)cc(N3CCN(c4ccc(NS(=O)(=O)c5ccc(NC(CCN6CCC(C(=O)OCCCP(=O)(O)O)CC6)CSc6ccccc6)c(S(=O)(=O)C(F)(F)F)c5)cc4)CC3)c2)c(-c2ccc(Cl)cc2)n1C(C)C (stereo not drawn) | – | 77.8% [middle of 14 runs] | 71.6% [middle of 14 runs] | 65% [middle of 14 runs] | 52.8% [middle of 14 runs] | 73.2% [middle of 14 runs] | – | – | – | IC50 [1]: > 10000 nM |
| Cc1nc(N2CCC3(CC2)COC(C)C3N)c(CO)nc1Sc1ccnc(N)c1Cl (stereo not drawn) | – | – | – | – | – | – | > 3000 nM and 1520 nM and 1800 nM | – | – | viability, T/C (compound 0.00949 µM): 105% and 96.7% and 89%; viability, T/C (compound 0.03 µM): 92.1% and 86.9% and 81.2%; viability, T/C (compound 0.0949 µM): 85.7% and 86% and 78.7%; viability, T/C (compound 0.3 µM): 92% and 75.2% and 66.9%; viability, T/C (compound 0.949 µM): 71.2% and 54.1% and 58.9%; viability, T/C (compound 3 µM): 54.9% and 42.4% and 43.2% |
| Cn1ncnc1[C@H]1c2n[nH]c(=O)c3cc(F)cc(c23)N[C@@H]1c1ccc(F)cc1 | 66.1% and 69.2% and 73.8% | 67.4% and 65.3% and 60.4% | – | – | – | – | > 100 nM | 83.3% and 95.1% and 85% | 73.3% and 73.7% and 87.7% | viability, T/C (compound 0.000316 µM): 84.6% and 103% and 102%; viability, T/C (compound 0.001 µM): 85.7% and 93.6% and 83.1% |
| NC(=O)C(=Cn1cnc(-c2cc(C(F)(F)F)cc(C(F)(F)F)c2)n1)c1cncnc1 | – | – | – | – | – | – | 94.2 nM and 65.9 nM and 94.4 nM | – | – | viability, T/C (compound 0.000949 µM): 88.9% and 102% and 89.1%; viability, T/C (compound 0.003 µM): 93.4% and 99.6% and 101%; viability, T/C (compound 0.00949 µM): 79.4% and 90.6% and 81.3%; viability, T/C (compound 0.03 µM): 73.1% and 71.5% and 74%; viability, T/C (compound 0.0949 µM): 49.7% and 40.1% and 50.4%; viability, T/C (compound 0.3 µM): 13.5% and 13.7% and 12.4% |
| NC1CCC(NC2CC2c2ccccc2)CC1 (stereo not drawn) | 93.3% and 81.8% and 96.3% | 88.3% and 94.6% and 95.1% | – | – | – | – | > 100 nM | 75.3% and 86% and 84.9% | 89% and 91.7% and 90.7% | viability, T/C (compound 0.000316 µM): 89% and 106% and 94%; viability, T/C (compound 0.001 µM): 76.7% and 90.3% and 92.3% |
| O=C(c1cc(Cc2n[nH]c(=O)c3ccccc23)ccc1F)N1CCN(C(=O)C2CC2)CC1 | 83.7% and 85.7% and 88.2% | 101% and 95% and 86.5% | 76.7% and 88.8% and 89.9% | 83.8% and 84.5% and 81.4% | 69.5% and 85.8% and 85.3% | 52.3% and 55.7% and 50% | > 10000 nM | – | – | – |
| O=C(c1ccc(F)c(F)c1Nc1ccc(I)cc1F)N1CC(O)([C@@H]2CCCCN2)C1 | 108% and 106% and 90.2% | 124% and 100% and 114% | 98.4% and 90% and 111% | 57.7% and 54.8% and 65.7% | – | – | > 1000 nM | 92.8% and 93% and 99.5% | 111% and 90% and 99.1% | – |
